Assay results reported in patent US10201536B2, “Methods and pharmaceutical compositions for the treatment of bacterial infections in patients suffering from cirrhosis” (INSERM (INSTITUT NATIONAL DE LA SANTE ET DE LA RECHERCHE …, priority 2015, dated 2019).

What was measured:
Gp91phox mRNA = Gp91phox mRNA quantification in neutrophils from cirrhotic patients; format: cell-based, human; conditions: patient neutrophils, 2.5 μg/ml, 30 min
Description: (§1) FIG. 3. The TLR7/8 agonist CL097 stimulated Gp91phox RNA production and synthesis in neutrophils from patients with advanced alcohol cirrhosis. Neutrophils from cirrhotic patients were treated in the absence (buffer) or presence of CL097 (2.5 μg/ml) for 30 min at 37° C. and the amount of Gp91phox mRNA was quantified and expressed as percentage of control (Buffer) (Panel A, n=6, *: P<0.05). The expression of Gp91phox was determined by western-blot assays and expressed as percentage±SEM of that of neutrophils of healthy donors (Panel B, n=4, *: P<0.05).
(§2) To determine whether this treatment improves NADPH oxidase activity, superoxyde production (02-°) was measured by the specific cytochrome C reduction assay, after cell stimulation with the bacterial peptide fMLP. […] Promisingly, these CL097 original properties were also observed in a model of ROS production in whole blood from patients (FIG. 5B).

[1] = tested on: purified neutrophils from patients with advanced alcohol cirrhosis; test: ROS production, luminol-enhanced chemiluminescence, purified patient neutrophils; format: cell-based, human
Description: (§3) FIG. 5. The TLR7/8 agonist CL097 restored the production of reactive oxygen species by purified neutrophils and in whole blood from patients. ROS production was measured by the highly sensitive luminol-enhanced chemiluminescence assay with purified neutrophils (0.5×10^6 cells/450μl Hanks Balanced salt solution, Panel A) and with whole blood (20 μl in 450 μl PBS containing 0.120 mM calcium, Panel B) from patients with advanced alcohol cirrhosis. Cells were treated for 15 min with the TLR7/8 agonist […], then with 1 μM fMLP (Panel A). Results represent the peak of chemiluminescence response expressed in cpm (mean±SEM of 8 experiments).
as §2

[2] = tested on: whole blood from cirrhotic patients; test: ROS production, luminol chemiluminescence, whole blood from cirrhotic patients; format: cell-based, human
Description: as §3
(§4) FIG. 6. […] Whole blood (20 μl) from healthy donors (Panel A) and cirrhotic patients (Panel B) were treated in 450 μL PBS containing 0.120 mM calcium), in the absence (control) and presence of R848 or CL097 (0.25-5 μg/ml) for 15 min. Cells were then stimulated with 1 μM fMLP. Results represent the peak of chemiluminescence response induced by fMLP and are expressed in cpm (mean±SEM of 4-6, *: P<0.05).
as §2

[3] = tested on: neutrophils from healthy donors; test: Superoxide production, cytochrome C reduction assay, healthy neutrophils; format: cell-based, human; conditions: 2.5 μg/ml 15 min, then 1 μM fMLP
Description: (§5) FIG. 4. The TLR7/8 agonist CL097 restored the production of superoxide in neutrophils from patients with advanced alcohol cirrhosis. Neutrophils from healthy donors and patients with advanced alcoholic cirrhosis were treated for 15 min with the TLR7/8 agonist (2.5 μg/ml), then with PBS or 1 μM fMLP. Results represent the mean of superoxide production±SEM expressed in nmole/10^6 cells (n=8, *: P <0.05).
as §2

E coli [4] = test: Bactericidal activity of neutrophils from healthy volunteers against E coli; format: cell-based, human
Description: (§6) FIG. 7. Impaired bactericidal activity of neutrophils from cirrhotic patients and beneficial effects of the TLR7/8 agonist CL097. (A) Neutrophils from healthy volunteers (Control) and cirrhotic patients were incubated with E coli for 5 min, then treated or not (Buffer) with fMLP (1 μM) for 25 min. (B, C): Neutrophils incubated with bacteria were treated without (PBS) and with CL097 (1 μg/ml) for 2 min before stimulation with fMLP for 23 min. Cells were lysed and the number of bacterial colony was determined and expressed as percentage of that of control resting cells (A, n=6), or % of that of resting cells (PBS) in both cell populations (B, C, n=6); *P<0.05 (Data published in Boussif A et al, J Hepatol. 2016 64:1041-8. doi: 10.1016/j.jhep.2015.12.005. Epub 2015 Dec. 21).
(§7) Thus, TLR7/8 activation may provide beneficial effects on neutrophil host-defense activities in patients with cirrhosis.

[5] = tested on: neutrophils from patients with advanced alcoholic cirrhosis; test: Superoxide production, cytochrome C reduction assay, patient neutrophils; format: cell-based, human; conditions: 2.5 μg/ml 15 min, then 1 μM fMLP
Description: as §5, §2

Gp91phox [6] = test: Gp91phox expression by western-blot in neutrophils from cirrhotic patients; format: cell-based, human; conditions: patient neutrophils, 2.5 μg/ml, 30 min
Description: as §1, §2

E coli [7] = test: Bactericidal activity of neutrophils from cirrhotic patients against E coli; format: cell-based, human
Description: as §6, §7

[8] = tested on: whole blood from healthy donors; test: ROS production, luminol chemiluminescence, whole blood from healthy donors; format: cell-based, human; conditions: 0.25-5 μg/ml 15 min, then 1 μM fMLP
Description: as §4, §2

cirrhotic BDL rats = test: In vivo treatment of cirrhotic bile duct ligated (BDL) rats, ROS production in whole blood; design: species or system Wistar female rats; conditions: 2.2 mg/kg at day 21, parenteral administration, fMLP 1 μM ex vivo
Description: FIG. 11. In vivo treatment of cirrhotic rats by R848 reverses the deficient ROS production in whole blood. The common bile duct with Wistar female rats was ligated (BDL) under general anesthesia (10 mg Avertin, IP) close to the liver hilum immediately below the bifurcation as described previously (Mohammadi et al, Liver Int. 2009, 29(5):692-700). All surgical procedures were performed under sterile conditions. Blood was collected in Eppendorf tubes (approximately 0.5 ml in 10 mM EDTA) with a 1 inch hypodermic needle inserted into the vessel in the mid ventral surface of the tail. White blood cells were counted using a MS9-5V Analyser Counter (Melet Schloesing Laboratories). At day 21, the cirrhotic BDL rats were treated with R848 (2.2 mg/kg) as reported (McCluskie M J et al, Antiviral Res. 69:77-85, 2006). Control rats were not treated. The production of reactive oxygen species were measured in whole blood at the indicated day. Briefly, ROS production was continueously recorded in a thermostated bioluminometer (Berthold LB940) using 3 blood volumes (0.9, 1.8 and 3.75 μl) incubated at 37° C. in 0.5 ml Hanks balanced salt solution (HBSS) containing 10 μM luminol. Cells were treated with cytochalasin b (0.25 μg/ml) for 5-10 min then stimulated with the bacterial-derived peptide fMet-Leu-he (fMLP, 1 μM). ROS production represents the peak of chemiluminescence response in whole blood. […]

p22phox = p22phox degradation in healthy PMN treated with purified elastase, western-blot; format: cell-based, human; conditions: 1 H at 37° C., 0.5 unit
Description: (§8) FIG. 8. Elastase induces the degradation of gp91phox and p22phox in healthy PMN. (A and B) Western-blot analysis and densitometric quantification of gp91phox and p22phox in healthy PMN treated in the absence or presence of elastase at 0.1 and 0.5 units for 1 hour. (C and D) Western-blot analysis densitometric quantification of gp91phox and […] in healthy PMN treated in the absence or presence of the elastase inhibitor (NEI) at 100 μM for 15 min before stimulation with fMLP (1 μM) for 45 min. (E) Western-blot analysis densitometric quantification of gp91phox in healthy PMN pretreated in the absence or presence of the elastase inhibitor (NEI) at 100 μM for 15 min before incubation for 45 min with a cell-free degranulation supernatant obtained from fMLP (1 μM, 2 min) stimulated PMN. Blots are representative of 4 experiments and densitometric analyses are cumulative and expressed as percentage of the actin level. […] (F) Sensorgrams of the PMN specific binding and dissociation to the anti-gp91phox antibody (7D5) coated to the CM3 sensorchip, analysed with the Biacore X100, as a function of time. […] Data are representative of 3 independent experiments are expressed as resonance unit (RU). (G) Flow cytometry quantification of the Gp91phox expression at the surface of PMN treated or not (Control) with 0.5 unit Elastase at 4° C. […]

Gp91phox [9] = test: Biacore SPR binding of intact PMN to anti-gp91phox 7D5 antibody; design: species or system human; conditions: PMN pretreated 1 H at 37° C. (0.5 units) and washed
Description: as §8

Gp91phox [10] = test: Flow cytometry of 7D5 antibody binding to gp91phox at the PMN surface after elastase at 4° C.; format: cell-based, human; conditions: PMN treated at 4° C. for 1 H, 0.5 unit
Description: as §8

Gp91phox [11] = test: gp91phox degradation in healthy PMN treated with purified elastase, western-blot; format: cell-based, human; conditions: 1 H at 37° C., 0.1 and 0.5 unit
Description: as §8

CCOCc1nc2c([nH]1)c(N)nc1ccccc12 [CL097]
Gp91phox mRNA level (Gp91phox mRNA): increased
fMLP-induced ROS production ([1]; agonist 15 min, then 1 μM fMLP): strongly potentiate
ROS production by agonist by itself ([1]; agonist alone, 15 min): weak production of ROS
ROS production in whole blood (stimulation and potentiation properties) ([2]; whole blood from patients): also observed
optimal production of superoxide [3]: further increased
fMLP-induced bacterial killing (E coli [4]; control neutrophils, 1 μg/ml 2 min before fMLP 23 min): non significant increase
bacterial killing by agonist alone (E coli [4]; neutrophils from controls, 1 μg/ml): significant bacterial killing
fMLP-induced superoxide production [5]: potentiated fMLP-induced superoxide production to a level similar of that of neutrophils from healthy donors
expression of Gp91phox (western-blot) (Gp91phox [6]): restored
bacterial killing by agonist alone (E coli [7]; neutrophils from cirrhotic patients, 1 μg/ml): significant bacterial killing
fMLP-induced bacterial killing (E coli [7]; patients' neutrophils, 1 μg/ml 2 min before fMLP 23 min): strongly potentiated

CCOCc1nc2c(N)nc3ccccc3c2n1CC(C)(C)O [R848, 4-amino-2-ethoxymethyl-α,α-dimethyl-1H-imidazol[4,5-c]quinoline-1-ethanol]
improvement of ROS production, potency compared with CL097 ([2]; whole blood from cirrhotic patients, 0.25-5 μg/ml 15 min, then 1 μM fMLP): more potent than CL097
improvement of ROS production, potency compared with CL097 [8]: more potent than CL097
ROS production in whole blood of cirrhotic rats (cirrhotic BDL rats): reversed the deficient ROS production

elastase: purified elastase, a serine protease produced by neutrophils
p22phox degradation (p22phox): degradation of p22phox was observed
PMN binding to 7D5 antibody (SPR) (Gp91phox [9]): markedly reduced
7D5 antibody binding (FACS scan) (Gp91phox [10]): strongly inhibited
gp91phox degradation (Gp91phox [11]): approximately 50%
